# Results: US11083724B2, “Rimegepant for CGRP related disorders” (Biohaven Pharmaceutical Holding Company Ltd., priority 2018, dated 2021)
# Columns and labels:
# [1] = system: subjects with Acute Migraines; assay: Pooled liver function test profile, Study 301 and Study 302; type: in vivo, human
# Experimental: (§1) In a double-blind, randomized, placebo-controlled, multicenter study (Study 301, NCT03235479) adults≥18 years of age with at least a 1-year history of ICHD 3-beta migraine were eligible to participate. Following a 3- to 28-day screening period, subjects were randomized to receive rimegepant 75 mg or matching placebo and instructed to treat a single migraine attack with 1 dose of the blinded study drug (rimegepant or placebo) when headache pain reached moderate or severe intensity. The coprimary endpoints were pain freedom at 2 hours postdose and freedom from the most bothersome symptom (MBS) at 2 hours postdose. Safety assessments included adverse events (AEs), ECGs, vital signs, physical measurements, and routine laboratory tests, including assessment of liver function. Unless stated otherwise, values presented are mean±SD.
# as §1, with “302, NCT03237845)” for “301, NCT03235479)”
# patients with migraine = assay: Study 201 (BHV3000-201, NCT03266588): open label long-term safety study, rimegepant 75 mg oral tablet; type: in vivo, human
# Experimental: Clinical Trial-BHV3000-201: Open Label Safety Study in Acute Treatment of Migraine (ClinicalTrials.gov A phase 2⁄3 clinical study is conducted with about 2000 participants, as follows. The purpose of this study is to evaluate safety and tolerability of BHV3000 (rimegepant). Study Design • Study Type: Interventional (Clinical Trial) • Estimated Enrollment: 2000 participants • Intervention Model: Single Group Assignment • Masking: None (Open Label) • Primary Purpose: Treatment • Official Title: A Multicenter, Open Label Long-Term Safety Study of BHV3000 in the Acute Treatment of Migraine • Actual Study Start Date: Aug. 30, 2017 • Estimated Primary Completion Date: July 2019 • Estimated Study Completion Date: July 2019 Arms and Interventions Outcome Measures Primary Outcome Measures: 1. To assess the safety and tolerability of rimegepant (BHV-3000) by measuring the frequency and severity of adverse events and discontinuations due to adverse events [Time Frame: 52 weeks] Number of subjects with treatment-emergent adverse events as assessed through laboratory tests, ECGs, physical exam findings (safety and tolerability) Secondary Outcome Measures: 1. ALT or […] with total bilirubin>2×ULN [Time Frame: 52 weeks] elevated liver function tests 2. hepatic related adverse events and hepatic related adverse events that lead to discontinuation [Time Frame: 52 weeks] adverse events related to liver Results from the clinical trial described in Example 10 are summarized as follows. […] Patients were allowed to treat migraine attacks of all severities (mild to severe) up to once daily for a full year. The initial results for hepatic safety and tolerability of rimegepant 75 mg in study participants is based upon review of both adverse events and regularly scheduled liver function tests. Interim hepatic data were reviewed by an external and independent panel of liver experts. […] In the aggregate, it was noted that compared to migraine trials with drugs other than rimegepant, there was a very low incidence of overall elevations of liver function test abnormalities in rimegepant treated patients (1.0% incidence of serum ALT or […]). Subjects will continue to participate in Study 201 with additional data analyses to be submitted in the NDA and required 120-day safety updates.
# [2] = pooled Study 301 and 302, n = 1089
compound,measurement,setting,value
"N[C@@H]1c2cccnc2[C@H](OC(=O)N2CCC(n3c(=O)[nH]c4ncccc43)CC2)CC[C@H]1c1cccc(F)c1F [Rimegepant, [(5S,6S,9R)-5-amino-6-(2,3-difluorophenyl)-6,7,8,9-tetrahydro-5H-cyclohepta[b]pyridin-9-yl] 4-(2-oxo-3H-imidazo[4,5-b]pyridin-1-yl)piperidine-1-carboxylate]",Pooled Liver Function Test profile versus placebo,[1]; Study 301 and Study 302,Rimegepant was Similar to Placebo in Both Studies
same,bilirubin elevations > 2 × ULN,[1]; across both Studies 301 and 302,*No bilirubin elevations > 2 × ULN across both Studies 301 and 302
same,"ALT >3 × ULN, number of subjects",[1]; [2],1
same,"ALT >3 × ULN, percent of subjects",[1]; [2],0.1%
same,"ALT >5 × ULN, number of subjects",[1]; [2],0
same,"ALT >10 × ULN, number of subjects",[1]; [2],0
same,"ALT >20 × ULN, number of subjects",[1]; [2],0
same,"ALT >ULN, number of subjects",[1]; [2],22
same,"ALT >ULN, percent of subjects",[1]; [2],2.0%
same,"AST >3 × ULN, number of subjects",[1]; [2],1
same,"AST >3 × ULN, percent of subjects",[1]; [2],0.1%
same,"AST >5 × ULN, number of subjects",[1]; [2],0
same,"AST >10 × ULN, number of subjects",[1]; [2],0
same,"AST >20 × ULN, number of subjects",[1]; [2],0
same,"AST >ULN, number of subjects",[1]; [2],12
same,"AST >ULN, percent of subjects",[1]; [2],1.1%
same,">=20.0% decrease in migraines per month, number of subjects",patients with migraine; Enrollment Group (2-8),353
same,">=20.0% decrease in migraines per month, percent of subjects",patients with migraine; Enrollment Group (2-8),35.2%
same,">=25.0% decrease in migraines per month, number of subjects",patients with migraine; Enrollment Group (2-8),308
same,">=25.0% decrease in migraines per month, percent of subjects",patients with migraine; Enrollment Group (2-8),30.7%
same,">=30.0% decrease in migraines per month, number of subjects",patients with migraine; Enrollment Group (2-8),268
same,">=30.0% decrease in migraines per month, percent of subjects",patients with migraine; Enrollment Group (2-8),26.7%
same,">=35.0% decrease in migraines per month, number of subjects",patients with migraine; Enrollment Group (2-8),224
same,">=35.0% decrease in migraines per month, percent of subjects",patients with migraine; Enrollment Group (2-8),22.3%
same,">=40.0% decrease in migraines per month, number of subjects",patients with migraine; Enrollment Group (2-8),181
same,">=40.0% decrease in migraines per month, percent of subjects",patients with migraine; Enrollment Group (2-8),18.0%
same,">=45.0% decrease in migraines per month, number of subjects",patients with migraine; Enrollment Group (2-8),144
same,">=45.0% decrease in migraines per month, percent of subjects",patients with migraine; Enrollment Group (2-8),14.3%
same,">=50.0% decrease in migraines per month, number of subjects",patients with migraine; Enrollment Group (2-8),113
same,">=50.0% decrease in migraines per month, percent of subjects",patients with migraine; Enrollment Group (2-8),11.3%
same,">=20.0% decrease in migraines per month, number of subjects","patients with migraine; Enrollment Group (4-14), n 269",159
same,">=20.0% decrease in migraines per month, percent of subjects","patients with migraine; Enrollment Group (4-14), n 269",59.1%
same,">=25.0% decrease in migraines per month, number of subjects","patients with migraine; Enrollment Group (4-14), n 269",144
same,">=25.0% decrease in migraines per month, percent of subjects","patients with migraine; Enrollment Group (4-14), n 269",53.5%
same,">=30.0% decrease in migraines per month, number of subjects","patients with migraine; Enrollment Group (4-14), n 269",130
same,">=30.0% decrease in migraines per month, percent of subjects","patients with migraine; Enrollment Group (4-14), n 269",48.3%
same,">=35.0% decrease in migraines per month, number of subjects","patients with migraine; Enrollment Group (4-14), n 269",117
same,">=35.0% decrease in migraines per month, percent of subjects","patients with migraine; Enrollment Group (4-14), n 269",43.5%
same,">=40.0% decrease in migraines per month, number of subjects","patients with migraine; Enrollment Group (4-14), n 269",100
same,">=40.0% decrease in migraines per month, percent of subjects","patients with migraine; Enrollment Group (4-14), n 269",37.2%
same,">=45.0% decrease in migraines per month, number of subjects","patients with migraine; Enrollment Group (4-14), n 269",83
same,">=45.0% decrease in migraines per month, percent of subjects","patients with migraine; Enrollment Group (4-14), n 269",30.9%
same,">=50.0% decrease in migraines per month, number of subjects","patients with migraine; Enrollment Group (4-14), n 269",67
same,">=50.0% decrease in migraines per month, percent of subjects","patients with migraine; Enrollment Group (4-14), n 269",24.9%
same,">=20.0% decrease in migraines per month, number of subjects","patients with migraine; Enrollment Group (9-14), n 458",171
same,">=20.0% decrease in migraines per month, percent of subjects","patients with migraine; Enrollment Group (9-14), n 458",37.3%
same,">=25.0% decrease in migraines per month, number of subjects","patients with migraine; Enrollment Group (9-14), n 458",150
same,">=25.0% decrease in migraines per month, percent of subjects","patients with migraine; Enrollment Group (9-14), n 458",32.8%
same,">=30.0% decrease in migraines per month, number of subjects","patients with migraine; Enrollment Group (9-14), n 458",125
same,">=30.0% decrease in migraines per month, percent of subjects","patients with migraine; Enrollment Group (9-14), n 458",27.3%
same,">=35.0% decrease in migraines per month, number of subjects","patients with migraine; Enrollment Group (9-14), n 458",101
same,">=35.0% decrease in migraines per month, percent of subjects","patients with migraine; Enrollment Group (9-14), n 458",22.1%
same,">=40.0% decrease in migraines per month, number of subjects","patients with migraine; Enrollment Group (9-14), n 458",81
same,">=40.0% decrease in migraines per month, percent of subjects","patients with migraine; Enrollment Group (9-14), n 458",17.7%
same,">=45.0% decrease in migraines per month, number of subjects","patients with migraine; Enrollment Group (9-14), n 458",60
same,">=45.0% decrease in migraines per month, percent of subjects","patients with migraine; Enrollment Group (9-14), n 458",13.1%
same,">=50.0% decrease in migraines per month, number of subjects","patients with migraine; Enrollment Group (9-14), n 458",46
same,">=50.0% decrease in migraines per month, percent of subjects","patients with migraine; Enrollment Group (9-14), n 458",10.0%
same,">=20.0% decrease (reduction in headache days per month of at least 20%), number of subjects","patients with migraine; Overall, of 1731 subjects",683
same,">=20.0% decrease (reduction in headache days per month of at least 20%), percent of subjects","patients with migraine; Overall, of 1731 subjects",39.5%
same,">=25.0% decrease (reduction in headache days per month of at least 25%), number of subjects","patients with migraine; Overall, of 1731 subjects",602
same,">=25.0% decrease (reduction in headache days per month of at least 25%), percent of subjects","patients with migraine; Overall, of 1731 subjects",34.8%
same,">=30.0% decrease (reduction in headache days per month of at least 30%), number of subjects","patients with migraine; Overall, of 1731 subjects",523
same,">=30.0% decrease (reduction in headache days per month of at least 30%), percent of subjects","patients with migraine; Overall, of 1731 subjects",30.2%
same,">=35.0% decrease (reduction in headache days per month of at least 35%), number of subjects","patients with migraine; Overall, of 1731 subjects",442
same,">=35.0% decrease (reduction in headache days per month of at least 35%), percent of subjects","patients with migraine; Overall, of 1731 subjects",25.5%
same,">=40.0% decrease (reduction in headache days per month of at least 40%), number of subjects","patients with migraine; Overall, of 1731 subjects",362
same,">=40.0% decrease (reduction in headache days per month of at least 40%), percent of subjects","patients with migraine; Overall, of 1731 subjects",20.9%
same,">=45.0% decrease (reduction in headache days per month of at least 45%), number of subjects","patients with migraine; Overall, of 1731 subjects",287
same,">=45.0% decrease (reduction in headache days per month of at least 45%), percent of subjects","patients with migraine; Overall, of 1731 subjects",16.6%
same,">=50.0% decrease (reduction in headache days per month of at least 50%), number of subjects","patients with migraine; Overall, of 1731 subjects",226
same,">=50.0% decrease (reduction in headache days per month of at least 50%), percent of subjects","patients with migraine; Overall, of 1731 subjects",13.1%
same,"headache days per month, treatment phase versus observation phase",patients with migraine; Study 201,fewer headache days per month
same,Hy's Law cases,patients with migraine; Study 201 interim analysis,no Hy's Law cases
same,liver cases assessed as probably related to study drug,patients with migraine; Study 201 interim analysis,no liver cases
same,incidence of serum ALT or AST >3×ULN,"patients with migraine; Study 201 interim analysis, 75 mg up to once daily",1.0%
same,liver safety signal,"patients with migraine; Study 201 interim, including near-daily dosing (≥15 doses/month)",no liver safety signal detected
